The values that follow are results of earlier work, collected in paper PMC6929995, “Rod-shape theranostic nanoparticles facilitate antiretroviral drug biodistribution and activity in human immunodeficiency virus susceptible cells and tissues” (Theranostics, 2020).

The subject of this data set is HIV-1.

As to `Cc1cc(/C=C/C#N)cc(C)c1Nc1ccnc(Nc2ccc(C#N)cc2)n1` [RPV, rilpivirine], the potency result is given as “sub-nanomolar range”.
